According to the supplement of paper PMC10307832:

Experiments:
Assay in all cases: relative viability (nuclei count vs DMSO), 5 days (fraction); higher = more cells survive
TPCA-1 + Vorinostat = compound: C1=CC(=CC=C1C2=CC(=C(S2)NC(=O)N)C(=O)N)F [TPCA-1] + O=C(CCCCCCC(=O)Nc1ccccc1)NO [Vorinostat] (partner 1 µM)
How it was run: (§1)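 After 5 days of treatment, lung cancer cells in 1536-well plates were fixed and stained in a single step (final 0.05% Triton X-100, 1% formaldehyde, 1 ug/ml Hoechst) and their nuclei counted on 4× images. Treatment had been applied by pin tool the day after seeding as one drug alone or as a fixed anchor-drug dose with five library-drug doses (not always all listed) in √10 steps. Relative viability is the nuclei count of treated wells divided by that of vehicle wells, and values are medians of duplicate plates.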

TPCA-1 + Decitabine = compound: C1=CC(=CC=C1C2=CC(=C(S2)NC(=O)N)C(=O)N)F [TPCA-1] + Nc1ncn([C@H]2C[C@H](O)[C@@H](CO)O2)c(=O)n1 [Decitabine] (partner 2 µM)
How it was run: as §1

TPCA-1 + Crizotinib = compound: C1=CC(=CC=C1C2=CC(=C(S2)NC(=O)N)C(=O)N)F [TPCA-1] + C[C@@H](Oc1cc(-c2cnn(C3CCNCC3)c2)cnc1N)c1c(Cl)ccc(F)c1Cl [Crizotinib] (partner 1 µM)
How it was run: as §1

[1] = compound: C[C@]12O[C@H](C[C@]1(O)CO)n1c3ccccc3c3c4c(c5c6ccccc6n2c5c31)CNC4=O [Lestaurtinib] + O=C(CCCCCCC(=O)Nc1ccccc1)NO [Vorinostat] (partner 1 µM)
How it was run: as §1

Row | Cell Line | relative viability (TPCA-1 + Vorinostat; first compound 0.04 µM) | relative viability (TPCA-1 + Vorinostat; first compound 0.1265 µM) | relative viability (TPCA-1 + Vorinostat; first compound 0.4 µM) | relative viability (TPCA-1 + Vorinostat; first compound 1.265 µM) | relative viability (TPCA-1 + Vorinostat; first compound 4 µM) | relative viability (TPCA-1 + Decitabine; first compound 0.04 µM) | relative viability (TPCA-1 + Decitabine; first compound 0.1265 µM) | relative viability (TPCA-1 + Decitabine; first compound 0.4 µM) | relative viability (TPCA-1 + Decitabine; first compound 1.265 µM) | relative viability (TPCA-1 + Decitabine; first compound 4 µM) | relative viability (TPCA-1 + Crizotinib; first compound 0.04 µM) | relative viability (TPCA-1 + Crizotinib; first compound 0.1265 µM) | relative viability (TPCA-1 + Crizotinib; first compound 0.4 µM) | relative viability (TPCA-1 + Crizotinib; first compound 1.265 µM) | relative viability (TPCA-1 + Crizotinib; first compound 4 µM) | relative viability ([1]; first compound 0.005 µM) | relative viability ([1]; first compound 0.01581 µM) | relative viability ([1]; first compound 0.05 µM) | relative viability ([1]; first compound 0.1581 µM) | relative viability ([1]; first compound 0.5 µM)
1 | SK-LU-1 | 0.872 | 0.672 | 0.774 | 0.577 | 0.449 | 0.72 | 0.563 | 0.627 | 0.493 | 0.372 | 0.862 | 0.667 | 1.07 | 0.675 | 0.556 | 0.668 | 0.667 | 0.491 | 0.415 | 0.277
2 | LOU-NH91 | 0.937 | 0.925 | 0.908 | 0.851 | 0.674 | 0.835 | 0.749 | 0.793 | 0.792 | 0.776 | 0.724 | 0.736 | 0.726 | 0.731 | 0.656 | 0.824 | 0.962 | 0.646 | 0.422 | 0.303
3 | LXF-289 | 0.786 | 0.819 | 0.762 | 0.764 | 0.42 | 0.384 | 0.345 | 0.395 | 0.403 | 0.34 | 0.84 | 0.785 | 0.794 | 0.806 | 0.537 | 0.64 | 0.741 | 0.75 | 0.472 | 0.184
4 | NCI-H1299 | – | – | – | – | – | – | – | – | – | – | 0.95 | 0.943 | 0.907 | 0.972 | 0.948 | – | – | – | – | –
5 | HARA | 0.55 | 0.51 | 0.528 | 0.433 | 0.361 | 0.576 | 0.54 | 0.844 | 0.462 | 0.492 | 0.985 | 0.995 | 1.11 | 1.01 | 0.56 | 0.559 | 0.648 | 0.53 | 0.311 | 0.104
6 | LU99A | 0.546 | 0.463 | 0.544 | 0.457 | 0.316 | 0.923 | 0.76 | 0.901 | 0.834 | 0.377 | 0.613 | 0.534 | 0.47 | 0.506 | 0.249 | 0.437 | 0.484 | 0.416 | 0.213 | 0.169
7 | 201T | 1.02 | 0.951 | 0.99 | 0.937 | 0.886 | 0.901 | 0.868 | 0.889 | 0.869 | 0.941 | 1.04 | 0.998 | 1.08 | 1.02 | 1.03 | 1.03 | 1.12 | 1.01 | 0.927 | 0.771
8 | HCC-827 | 0.987 | 0.764 | 0.89 | 0.841 | 0.671 | 0.364 | 0.326 | 0.317 | 0.31 | 0.31 | 0.948 | 0.924 | 0.899 | 0.83 | 0.567 | 0.817 | 0.961 | 0.869 | 0.924 | 0.244
9 | NCI-H1666 | 1.08 | 0.966 | 1.02 | 0.988 | 1.1 | 0.711 | 0.607 | 0.743 | 0.695 | 0.707 | 0.894 | 0.971 | 0.977 | 0.918 | 0.993 | 1.1 | 1.22 | 1.24 | 0.998 | 0.799
